Experimental data: patent US6911468B2, “Tyrosine phosphatase inhibitors” (Takeda Chemical Industries, Ltd., priority 2000, dated 2005)

Biological target: T1, PTP1B (Homo sapiens, UniProt P18031)
T1 construct: in order to express 1-321 amino acid region encoding enzyme active domain of PTP1B; made in house; host or cells: E. coli BL21 DE3 pLysS
T1 sequence (P18031 1-321): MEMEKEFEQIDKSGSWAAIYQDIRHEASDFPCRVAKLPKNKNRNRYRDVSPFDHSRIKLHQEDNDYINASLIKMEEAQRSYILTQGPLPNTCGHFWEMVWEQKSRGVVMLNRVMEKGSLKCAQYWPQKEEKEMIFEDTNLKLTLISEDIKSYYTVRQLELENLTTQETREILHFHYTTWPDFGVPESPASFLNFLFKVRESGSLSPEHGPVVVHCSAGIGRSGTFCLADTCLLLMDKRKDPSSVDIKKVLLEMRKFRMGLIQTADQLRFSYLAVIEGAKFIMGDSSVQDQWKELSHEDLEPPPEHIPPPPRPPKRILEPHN
Assay: Measurement of PTP1B Inhibitory Activity (dephosphorylation of p-nitrophenylphosphate, absorbance at 405 nm)
Type: biochemical
Conditions: PTP1B enzyme active domain (1-321 amino acid, 6 histidine residues at C-terminal), pNPP substrate, pH 6.5, 37° C. for 1 hour
Method: Based on the sequence of human PTP-1B registered in Genbank (M31724) database, primer 1 and primer 2 were synthesized, and PTP1B cDNA was amplified from human skeletal muscle cDNA library (Clonetech, Inc. HL5002a) according to PCR method using these primers. The cycle of reactions at 98° C. for 10 seconds, at 58° C. for 30 seconds and at 72° C. for 90 seconds was repeated 35 cycles. The PCR reaction product (1322 bp) was cloned to pT7 Blue-T vector (Novagen, Inc.) to identify the base sequence.
Human PTP 1B cDNA (1322 bp) (100 ng) was amplified with primer 3 and primer 4 in order to express 1-321 amino acid region encoding enzyme active domain of PTP1B. The PCR reaction product (976 bp) was cloned to pT7 Blue-T vector (Novagen, Inc.) to identify the base sequence.
The pT7 Blue-T vector-human PTP1B cDNA (976 bp) was cleaved with restriction enzymes NdeI and SalI (Takara Shuzo Co., Ltd.) and subjected to electrophoresis using 0.7% agarose gel, and a 969 bp fragment was excised and purified. The fragment was introduced into pET32a (+) vector (Novagen, Inc.) cleaved with restriction enzymes NdeI and XhoI (Takara Shuzo Co., Ltd.), to constitute a vector pET32a (+)-human PTP1B cDNA (969 bp), which expresses PTP1B (321 amino acid) with 6 histidine residues binded to a C-terminal thereof under a control of T7 lac promotor.
E.coli BL21 DE3 pLysS (Novagen, Inc.) was transformed with the pET32a (+)-human PTP 1B cDNA (969 bp) to give an ampicillin (50 μg/ml) resistant bacterium. This was shake cultured at 37° C. using 5L of 2xYT medium (ampicillin (50 μg/ml)). When OD600nm reached to 0.5, IPTG (Isopropyl b-D-Thiogalactoside) was added to the culture medium so as to be 1 mM in order to induce the expression of protein, and this medium was further cultured at 37° C. overnight. The bacterium was collected by centrifugation (8000 rpm, 10 minutes, 4° C.).
The bacterium was suspended in lysis buffer (50 ml) (20 mM Tris HCl (pH 8.0), 0.5 M NaCl, 1 mM PMSF, 5 mM benzamidine, Lysozyme 5 mg) and crushed by sonication. To the supernatant after centrifuging (12000 rpm, 10 minutes, 4° C.) was added imidazole so as to be 50 mM and the mixture was mixed with His Bind resin (Novagen, Inc.) binded with Ni ion (4° C., overnight). The mixture was washed with 200 ml of (20 mM Tris HCl (pH 8.0), 0.5 M NaCl, 1 mM PMSF, 5 mM benzamidine, 50 mM imidazole), eluted with (20 mM Tris HCl (pH 8.0), 0.5 M NaCl, 1 mM PMSF, 5 mM benzamidine, 400 mM imidazole) and concentrated by centrifugation using Ultrafree-15 Biomax-50 (MILLIPORE Corp.) (11 mg/ml, 4ml). The purified protein (PTP1B) was identified by Western blotting method using SDS-PAGE, coomassie Blue stain and anti-PTP1B antibody (UBI Inc.).
The PTP1B inhibitory activity of the test compound was evaluated by measuring the ability of the test compound to dephosphorylate p-nitrophenylphosphate (pNPP) (a change of the absorbance at 405 nm).
To a buffer for measurement of the activity (0.1 M sodium acetate (pH 6.5), 1 mM EDTA, 10 mM DTT) (10 ml) was added PTP1B enzyme solution (2 μl) and the mixture was added to each well of a 96-well microtiter plate (100 μl each). A solution of the test compound in DMSO (10 μl) and 2 mM pNPP/the buffer for measurement of the activity (90 μl) were then added to each well, and the absorbance at 405 nm was measured. After keeping at 37° C. for 1 hour, the absorbance was measured again to evaluate a change of the absorbance. Regarding the change of the absorbance in the absence of the test compound as 100%, the concentration of the compound necessary for 50% inhibition (IC50 value) was calculated.

With `Cc1ccc(-c2ccc(-c3ccc(O[C@H](Cc4ccccc4)C(=O)O)cc3)cc2)n1-c1ccc(Br)cc1` [Example 10, (2R)-2-({4′-[1-(4-Bromophenyl)-5-methyl-1H-pyrrol-2-yl][1,1′-biphenyl]-4-yl}oxy)-3-phenylpropanoic acid] the IC50 was 340 nM.

With `O=C(O)[C@@H](Cc1ccccc1)Oc1ccc(-c2cccn2-c2ccccc2)cc1` [Example 36, (2R)-2-[4-(1-Phenyl-1H-pyrrol-2-yl)phenoxy]-3-phenylpropanoic acid] the IC50 was 1430 nM.

Molecule `CCCCCCCCCCCn1c(C)ccc1-c1ccc(O[C@H](Cc2ccccc2)C(=O)O)cc1` [Example 64, (2R)-2-[4-(5-Methyl-1-undecyl-1H-pyrrol-2-yl)phenoxy]-3-phenylpropanoic acid] has an IC50 of 230 nM.

In the case of `Cc1cc(-c2ccccc2)c(-c2ccc(O[C@H](Cc3ccccc3)C(=O)O)cc2)n1-c1ccc(Br)cc1` [Example 30, (2R)-2-{4-[1-(4-Bromophenyl)-5-methyl-3-phenyl-1H-pyrrol-2-yl]phenoxy}-3-phenylpropanoic acid], the IC50 is reported as 720 nM.

Work on `Cc1cc(-c2ccc(O[C@H](Cc3ccccc3)C(=O)O)cc2)n(-c2ccc(Br)cc2)c1C` [Example 24, (2R)-2-{4-[1-(4-Bromophenyl)-4,5-dimethyl-1H-pyrrol-2-yl]phenoxy}-3-phenylpropanoic acid] yielded an IC50 of 320 nM.

For `Cc1ccc(-c2ccc(O[C@H](Cc3ccccc3)C(=O)O)cc2)n1-c1ccc(Br)cc1` [Example 6, (2R)-2-{4-[1-(4-Bromophenyl)-5-methyl-1H-pyrrol-2-yl]phenoxy}-3-phenylpropanoic acid], the IC50 was 500 nM.

With `CCCCCCCCn1c(C)ccc1-c1ccc(O[C@H](Cc2ccccc2)C(=O)O)cc1` [Example 58, (2R)-2-[4-(5-Methyl-1-octyl-1H-pyrrol-2-yl)phenoxy]-3-phenylpropanoic acid] the IC50 was 340 nM.

`Cc1ccc(-c2ccc(/C=C/C(=O)O)cc2)n1-c1ccc(/C=C/C(=O)O)cc1` [Example 4, (2E)-3-[4-(1-{4-[(1E)-2-Carboxyethenyl]phenyl}-5-methyl-1H-pyrrol-2-yl)phenyl]-2-propenoic acid] showed an IC50 of 6480 nM.

Work on `Cc1cc(C)n(-c2ccc(Br)cc2)c1-c1ccc(O[C@H](Cc2ccccc2)C(=O)O)cc1` [Example 26, (2R)-2-{4-[1-(4-Bromophenyl)-3,5-dimethyl-1H-pyrrol-2-yl]phenoxy}-3-phenylpropanoic acid] yielded an IC50 of 420 nM.

With `CCCc1cc(C)n(-c2ccc(Br)cc2)c1-c1ccc(O[C@H](Cc2ccccc2)C(=O)O)cc1` [Example 28, (2R)-2-{4-[1-(4-Bromophenyl)-5-methyl-3-propyl-1H-pyrrol-2-yl]phenoxy}-3-phenylpropanoic acid] the IC50 was 480 nM.

Work on `CCCCCCCCCCCCCn1c(C)ccc1-c1ccc(O[C@H](Cc2ccccc2)C(=O)O)cc1` [Example 66, (2R)-2-[4-(5-Methyl-1-tridecyl-1H-pyrrol-2-yl)phenoxy]-3-phenylpropanoic acid] yielded an IC50 of 170 nM.

For `Cc1ccc(-c2ccc(O[C@H](Cc3c[nH]c4ccccc34)C(=O)O)cc2)n1-c1ccc(Br)cc1` [Example 32, (2R)-2-{4-[1-(4-Bromophenyl)-5-methyl-1H-pyrrol-2-yl]phenoxy}-3-(1H-indol-3-yl)propanoic acid], the IC50 was 2100 nM.

In the case of `Cc1ccc(-c2ccc(O[C@H](Cc3ccccc3)C(=O)O)cc2)n1-c1ccc(C(F)(F)F)cc1` [Example 46, (2R)-2-{4-[5-Methyl-1-(4-trifluoromethylphenyl)-1H-pyrrol-2-yl]phenoxy}-3-phenylpropanoic acid], the IC50 is reported as 400 nM.

For `O=C(O)[C@@H](Cc1ccccc1)Oc1ccc(-n2cccc2-c2ccc(Br)cc2)cc1` [Example 18, (2R)-2-{4-[2-(4-bromophenyl)-1H-pyrrol-1-yl]phenoxy}-3-phenylpropanoic acid], the IC50 was 1010 nM.

`O=C(O)CCc1ccc(-c2cccn2-c2ccc(CCC(=O)O)cc2)cc1` [Example 14, 3-(4-{1-[4-(2-Carboxyethyl)phenyl]-1H-pyrrol-2-yl}phenyl)propanoic acid] gave an IC50 of 5870 nM.

With `CCCCCCCCCCCCn1c(C)ccc1-c1ccc(O[C@H](Cc2ccccc2)C(=O)O)cc1` [Example 56, (2R)-2-[4-(1-Dodecyl-5-methyl-1H-pyrrol-2-yl)phenoxy]-3-phenylpropanoic acid] the IC50 was 130 nM.

`O=C(O)[C@@H](Cc1ccccc1)Oc1ccc(-c2cccn2-c2ccc(Br)cc2)cc1` [Example 2, (2R)-2-{4-[1-(4-Bromophenyl)-1H-pyrrol-2-yl]phenoxy}-3-phenylpropanoic acid] gave an IC50 of 890 nM.

With `O=C(O)[C@@H](Cc1ccccc1)Oc1ccc(-c2ccc(-c3ccccc3)n2-c2ccc(Br)cc2)cc1` [Example 22, (2R)-2-{4-[1-(4-Bromophenyl)-5-phenyl-1H-pyrrol-2-yl]phenoxy}-3-phenylpropanoic acid] the IC50 was 710 nM.

`O=C(O)[C@@H](Cc1ccccc1)Oc1ccc(-c2cccn2-c2ccc(Cl)cc2)cc1` [Example 40, (2R)-2-{4-[1-(4-Chlorophenyl)-1H-pyrrol-2-yl]phenoxy}-3-phenylpropanoic acid] was tested, and the IC50 was 1200 nM.

`Cc1ccc(-c2cc(Br)c(O[C@H](Cc3ccccc3)C(=O)O)c(Br)c2)n1-c1ccc(Br)cc1` [Example 8, (2R)-2-{2,6-Dibromo-4-[1-(4-bromophenyl)-5-methyl-1H-pyrrol-2-yl]phenoxy}-3-phenylpropanoic acid] gave an IC50 of 380 nM.

`Cc1ccc(-n2cccc2-c2ccc(O[C@H](Cc3ccccc3)C(=O)O)cc2)cc1` [Example 38, (2R)-2-{4-[1-(4-Methylphenyl)-1H-pyrrol-2-yl]phenoxy}-3-phenylpropanoic acid] was tested, and the IC50 was 1600 nM.

Molecule `O=C(O)[C@@H](Cc1ccccc1)Oc1ccc(-c2cccn2-c2ccc(O[C@H](Cc3ccccc3)C(=O)O)cc2)cc1` [Example 16, (2R)-2-{4-[1-(4-{[(1R)-1-Carboxy-2-phenylethyl]oxy}phenyl)-1H-pyrrol-2-yl]phenoxy}-3-phenylpropanoic acid] has an IC50 of 410 nM.

`CCCCCCCCCn1c(C)ccc1-c1ccc(O[C@H](Cc2ccccc2)C(=O)O)cc1` [Example 60, (2R)-2-[4-(5-Methyl-1-nonyl-1H-pyrrol-2-yl)phenoxy]-3-phenylpropanoic acid] gave an IC50 of 360 nM.

`Cc1ccc(-c2ccc(O[C@H](Cc3ccccc3)C(=O)O)cc2)n1CCc1ccc(Br)cc1` [Example 52, (2R)-2-(4-{1-[2-(4-bromophenyl)ethan-1-yl]-5-methyl-1H-pyrrol-2-yl}phenoxy)-3-phenylpropanoic acid] was tested, and the IC50 was 310 nM.

Work on `Cc1ccc(-c2ccc(O[C@H](Cc3ccccc3)C(=O)O)cc2)n1Cc1ccccc1` [Example 48, (2R)-2-[4-(1-Benzyl-5-methyl-1H-pyrrol-2-yl)phenoxy]-3-phenylpropanoic acid] yielded an IC50 of 360 nM.

`CCCCCCCCCCn1c(C)ccc1-c1ccc(O[C@H](Cc2ccccc2)C(=O)O)cc1` [Example 62, (2R)-2-[4-(1-Decyl-5-methyl-1H-pyrrol-2-yl)phenoxy]-3-phenylpropanoic acid] was tested, and the IC50 was 210 nM.
